In patent US9198914B2, “Methods and compositions for modulating RAD51 and homologous recombination” (The University of Chicago, priority 2007, dated 2015):
“Also recorded” adds a separate entry of the source.

How the values were obtained:
[1] = target: T1, human RAD51 (Homo sapiens, UniProt Q06609); experiment: Fluorescence polarization assay for RAD51 filament formation on fluorescein-labeled oligonucleotide; type: biochemical
T1 sequence (Q06609 1-339): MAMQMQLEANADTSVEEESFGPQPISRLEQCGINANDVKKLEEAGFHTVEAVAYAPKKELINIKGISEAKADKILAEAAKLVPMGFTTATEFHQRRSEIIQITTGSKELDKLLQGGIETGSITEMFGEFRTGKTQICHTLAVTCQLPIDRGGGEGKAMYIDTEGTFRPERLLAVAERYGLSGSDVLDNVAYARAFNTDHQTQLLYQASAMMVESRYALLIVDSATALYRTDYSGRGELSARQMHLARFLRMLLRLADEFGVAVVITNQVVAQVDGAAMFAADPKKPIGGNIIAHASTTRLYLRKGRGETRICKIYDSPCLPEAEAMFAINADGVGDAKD
Method: FIGS. 2A-2B. FIG. 2A, top: Schematic of protein filament formation monitored in vitro using a fluorescence polarization assay. FIG. 2A, bottom: Purified RAD51 protein (wild type or mutant F86E) were serially diluted. RecA (New England Biolabs) was used as a positive control. Proteins were added to a 5′terminal fluorescein conjugated oligonucleotide (45 bases of dT) at a 1 μM nucleotide concentration. The mixture was incubated at 37° C. for 30 minutes in 384-well plates containing a reaction buffer (30 mM Tris/acetate pH 7.5, 10 mM Mg^2+/acetate, 2 mM ATP, 0.1 mM DTT, 0.5 μM BSA). Fluorescence polarization was measured with a plate reader (filters: excitation=485 nm, emission=510 nm). FIG. 2B, top: Varying concentrations of 5′terminal fluorescein conjugated oligonucleotide were used to determine the threshold RAD51 concentration.
The assay of Example 2 was used to serve in the screen of a small-molecule chemical library for compounds that stimulate RAD51 filament formation. […] Multiple positive (+RAD51) and negative […] controls were tested, and these readings were tested using the statistical method described by Zhang et al. (1999), which evaluates the suitability of an HT assay. The assay as described has a Z-factor of 0.82, validating it as an excellent assay for HT screening.
The assay of Example 2 was used to serve in the screen of a small-molecule chemical library for compounds that inhibit RAD51 filament formation. […] FP readings were very reproducible with reaction volumes in the 10-100 μl range, and 100 μl was typically used. […] The assay was optimized such that the positive control FP reading was ˜50% of maximal reaction saturation; the RAD51 protein concentration was 0.3 uM and the fluorescein-labeled DNA is at 0.1 uM (nucleotide concentration). […] The average FP readings for positive control and negative control are 344 mP (SD=13.4) and 27 mP (SD=5.3), respectively. These readings were tested using the statistical method described by Zhang et al, which evaluates the suitability of an HT assay (Zhang et al., 1999). […]

[2] = target: RecA protein (the bacterial ortholog of RAD51) (Escherichia coli, UniProt P0A7G6); settings: RecA in place of RAD51
Method: RAD51 filament formation can also be studied using oligonucleotides that are end-labeled with a fluorescent tag. Binding of proteins to this substrate DNA can be detected as an increase in anisotropy (or polarization) of the fluorescent tag. […] In this example, this method was modified so that very small sample volumes (30 μl) can be monitored in a high-throughput scale, using 384-well plates and a fluorescent plate reader. […] By varying the amount of substrate DNA, a threshold of approximately 0.1 μM RAD51 protein is required for in vitro filament formation in this system.
A naïve 10,000 compound library of small molecules (Chembridge DIVERSet collection) was screened. A ‘mixed compound’ screening strategy was used, wherein each reaction tested a mixture of 8 compounds.

[3] = target: T2, yeast DMC1 (Saccharomyces cerevisiae, UniProt P25453); experiment: Strand invasion (D-loop) assay with DMC1 in place of RAD51; type: biochemical
T2 sequence (P25453 1-334): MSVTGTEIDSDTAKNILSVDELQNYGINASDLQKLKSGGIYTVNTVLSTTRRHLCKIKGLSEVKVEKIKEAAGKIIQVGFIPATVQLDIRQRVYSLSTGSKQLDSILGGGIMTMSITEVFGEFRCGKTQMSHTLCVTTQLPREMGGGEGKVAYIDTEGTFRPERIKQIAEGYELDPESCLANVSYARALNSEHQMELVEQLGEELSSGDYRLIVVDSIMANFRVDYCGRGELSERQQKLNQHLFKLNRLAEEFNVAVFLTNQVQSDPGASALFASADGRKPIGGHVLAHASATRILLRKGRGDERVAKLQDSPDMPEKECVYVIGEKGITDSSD
Method: (§1) Conditions with scRAD51 additionally contained 110 nM scRAD54.

[4] = target: bacterial RecA (Escherichia coli, UniProt P0A7G6)
Method: Briefly, 15 μl reaction volumes included a DNA strand exchange protein (0.8 μM) that was pre-incubated for 5 min at 37° C. with 1 μM (nucleotide concentration) ^32P-labeled oligonucleotide in a reaction buffer containing 20 mM Hepes (pH 7.5), 1 mM DTT, 2 mM nucleotide cofactor, and 1 mM MgCl2, and various concentrations of RS-1. For experimental buffer conditions that included calcium, 1 mM CaCl2 was present in addition to (in the case of hRAD51) or in the place of (in the case of RecA and scRAD51) the 1 mM MgCl2. Conditions with scRAD51 additionally contained 110 nM scRAD54. Following this initial binding reaction, 10 μl of 19.75 μM (base pair concentration) supercoiled homolog-containing target plasmid DNA (pRS306) was next added along with sufficient magnesium acetate to give a final concentration of 10 mM. DNA substrates were allowed form a homology dependent association (or ‘D-loop’), and reactions were stopped with SDS and proteinase K. The resulting DNA was separated on 1.3% agarose gels, transferred onto nitrocellulose membranes, analyzed by phosphorimaging, and quantified with ImageJ 1.37v software (NIH).
These experiments were repeated using other recombinase proteins (bacterial RecA and yeast DMC1) in the place of human RAD51.

[5] = target: T1, human RAD51; experiment: Strand invasion (D-loop) assay; type: biochemical; settings: 0.8 μM RAD51; buffer that does not support joint molecule formation (1 mM ATP, 1 mM MgOAc)
Method: FIGS. 6A-6B. Schematic of the strand invasion (D-loop) assay.
as §1

[6] = test system: chicken lymphocyte DT40 cells; experiment: Clonogenic survival study in the presence of radiation; type: cell-based; settings: compound added about 30 minutes after irradiation, 24 hours
Method: Single chicken lymphocyte DT40 cells were irradiated. Thirty minutes later, they were incubated with compound 45488 (also called compound 5253121) for 24 hours. Single cells were then plated (100, 1000, or 10000) in 6-well plates in media. Because DT40 cells are not adherent to plastic surfaces, the media included methylcellulose to provide viscosity. After 7-10 days, the resulting colonies are counted, and survival is reported as a colony-forming ability relative to un-irradiated cells.

Chain of RecA protein (the bacterial ortholog of RAD51) (P0A7G6 2-353): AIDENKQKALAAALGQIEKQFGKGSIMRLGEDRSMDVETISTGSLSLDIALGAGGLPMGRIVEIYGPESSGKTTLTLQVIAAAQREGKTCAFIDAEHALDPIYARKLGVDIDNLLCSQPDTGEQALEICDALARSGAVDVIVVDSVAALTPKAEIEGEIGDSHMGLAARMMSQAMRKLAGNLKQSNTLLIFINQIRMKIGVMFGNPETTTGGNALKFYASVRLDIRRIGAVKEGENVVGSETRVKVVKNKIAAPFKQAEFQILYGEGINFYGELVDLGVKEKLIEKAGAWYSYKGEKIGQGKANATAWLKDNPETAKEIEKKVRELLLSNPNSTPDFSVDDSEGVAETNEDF
Chain of bacterial RecA (P0A7G6 whole entry): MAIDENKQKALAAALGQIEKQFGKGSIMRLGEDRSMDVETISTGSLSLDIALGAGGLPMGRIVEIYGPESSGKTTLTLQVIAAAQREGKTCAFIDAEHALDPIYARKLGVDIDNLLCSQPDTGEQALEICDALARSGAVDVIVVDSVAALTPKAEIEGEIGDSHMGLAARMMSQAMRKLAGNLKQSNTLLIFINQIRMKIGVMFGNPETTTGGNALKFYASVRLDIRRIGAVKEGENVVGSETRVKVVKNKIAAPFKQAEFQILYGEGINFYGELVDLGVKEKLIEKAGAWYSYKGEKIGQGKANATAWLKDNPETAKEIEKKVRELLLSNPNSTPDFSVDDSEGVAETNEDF

SMILES: O=C(Nc1ccc(Br)cc1)c1ccc(Br)c(S(=O)(=O)NCc2ccccc2)c1 [compound 45488]
- stability of RAD51 filaments in high salt ([1]; buffers containing high salt concentrations): protects these filaments from buffers containing high salt concentrations; also recorded: stabilizes RAD51 filaments in the presence of high salt concentrations
- effect on RAD51 filament formation ([1]; compound at 20 μM): enhances filament formation
- effect on RAD51 filament formation ([1]; further study): enhances RAD51 filament formation
- stimulation of RecA filament formation [2]: no stimulation of filament formation
- effect on strand invasion by DMC1 [3]: some inhibition
- effect on strand invasion by RecA [4]: no effect
- joint molecule formation / DNA strand invasion activity of RAD51 [5]: capable of stimulating DNA strand invasion activity of RAD51; also recorded: concentration dependent increase in joint molecule formation
- protection of cells from radiation (colony-forming ability) [6]: protects the cells from radiation damage
